Assay results as given in patent publication US7786258B2, “Methods for inhibiting immune complex formation in a subject” (Trinity Therapeutics, Inc., priority 2004, dated 2010).
Positions of bridges follow the written chain, without caps; N, C: chain ends. No end group written: not given here.

Key:
RF = assay: Inhibition of RF binding to immune complexes using additional peptides (Example 5); conditions: for OD 405 nm: PAP pre-incubated with peptide one hour, RF coated plates, positive control 1.176
Description: The ability of additional peptides to inhibit the binding of RF to immune complexes was tested. Immune complexes (PAP) were formed by mixing 2 μl of rabbit anti-peroxidase with 50 μl of peroxidase in 1 ml distilled water. PAP (100 μl) were pre-incubated with 100 μl of peptide for one hour. Plates coated with RF were blocked with 5× BSA for 24 hours. The PAP/peptide mixtures (100 μl) were incubated with the RF coated plates for 30 minutes. RF (100 μl of a 200 I.U. standard supplied by Research Diagnostics) was used as a negative control. After washing and incubation with ABTS substrate (Quidel Corp., San Diego, Calif.) for 15 minutes, plates were read at 405 nm.

C1q = assay: Inhibition of C1q binding to immune complexes using additional peptides (Example 6); set-up: species or system human; conditions: for OD 405 nm: PAP pre-incubated with peptide or human C1q one hour, C1q coated plates, positive control 2.355
Description: The C1q/PAP and peptide/PAP mixtures (100 μl) were incubated with C1q coated plates for 30 minutes. After washing, plates were incubated with ATBS (Quidel Corp.) for 15 minutes and read at 405 nm.

FcγIII = assay: Inhibition of FcR binding to PAP by additional peptides, FcγIII coated plates (Example 8); conditions: OD read at 405 nm; positive control 1.588
Description: (§1) Falcon microtiter plates were coated with 1:10 dilutions of highly purified FcγIIa, FcγIIb and FcγIII, sealed, and incubated for […] at 4° C. […] PAP immune complexes were formed as described in Example 5. PAP (100 μl) were pre-incubated with 100 μl of peptide for one hour. PAP/peptide mixtures were added to the FcR coated plates and incubated for one hour. After washing, plates were incubated with ABTS substrate for 15 minutes and read at 405 nm.

FcγIIb = assay: Inhibition of FcR binding to PAP by additional peptides, FcγIIb coated plates (Example 8); conditions: OD read at 405 nm; positive control 1.394
Description: as §1

FcγIIa = assay: Inhibition of FcR binding to PAP by additional peptides, FcγIIa coated plates (Example 8); conditions: for OD 405 nm: OD read at 405 nm, positive control 1.599
Description: as §1

human monomeric IgG = assay: Inhibition of RF binding to monomeric IgG by additional peptides (Example 7); conditions: peptides pre-incubated 1 hour with monomeric IgG, then 200 I.U. RF; positive control 1.312
Description: The ability of additional peptides to inhibit RF binding to monomeric IgG was tested. A standard rheumatoid factor commercial test was used (Research Diagnostics, New Jersey) with the following modifications: 100 μl of test peptides were pre-incubated for 1 hour with human monomeric IgG (Research Diagnostics, New Jersey). Plates were then washed and incubated with 200 I.U. of the RF positive control supplied with the test kit. The rest of the test was performed according to the manufacturer's instructions.

histone = assay: Inhibition of histone binding: PAP immune complexes on histone-coated plates (Example 3)
Description: Inhibition of histone binding: The binding of immune complexes to the kidneys in lupus nephritis appears to involve (a) the binding of histones to the GBM, and then (b) the binding of immune complexes (through the IgG Fc CH2-CH3 cleft) to the bound histones. Experiments similar to those described above were used to inhibit binding of purified histone to IgG Fc binding. Histone (Sigma) was diluted 1:10 in coating buffer (Alpha Diagnostic International) and incubated on Falcon microtiter plates for 24 hours. Plates were blocked with 5× BSA blocking solution (Alpha Diagnostic International) for 24 hours. Freshly prepared 1:10 rabbit PAP (Sigma) was pre-incubated with either peptides or histone for one hour, and 100 μl of the mixture was added to the histone-coated plates for one hour. Plates were incubated with ABTS substrate (Quidel Corp.) for 45 minutes, and OD 405 was read.

MBP = test system: MBP
Description: Inhibition of MBP binding: MBP (Sigma) was diluted 1:10 with coating buffer (Alpha Diagnostic International) and incubated for 24 hours on Falcon microtiter plates. Plates were washed and then blocked with 5× BSA blocking buffer (Alpha Diagnostic International) for 24 hours. Rabbit 1:10 PAP immune complexes were pre-incubated with equal amounts of peptide or MBP for 30 minutes. One hundred μl of PAP immune complexes/peptide or PAP/MBP was then added to the MBP-coated plates and incubated for one hour. The plates were washed and incubated with TMB substrate (Alpha Diagnostic International) for 30 minutes. After adding stop solution (Alpha Diagnostic International), the plates were read at 450 nm.
Further experiments were conducted to determine the effect of SEQ ID NO:47 (also referred to as NB-406) on binding of MBP to IgG PAP immune complexes.

Sequence | OD 405 nm (RF) | OD 405 nm (C1q) | OD at 405 nm (FcγIII) | OD 405 nm (FcγIIb) | OD 405 nm (FcγIIa) | OD 405 nm (human monomeric IgG) | inhibition of RF binding to immune complexes, in words (RF; Table 10) | OD 405 nm (histone; Table 5 experiment, IgG PAP immune complexes, positive control 2.110) | inhibition of histone binding to immune complexes, in words (histone; text on Tables 4 and 5) | inhibition of C1q binding, in words (C1q; Table 11) | inhibition of FcR binding to PAP, in words (FcγIIa; Table 13, statement for FcγIIa, FcγIIb and FcγIII together) | OD 405 nm (MBP; Table 7 experiment, IgG PAP immune complexes, positive control 2.343) | inhibition of MBP binding to immune complexes, in words (MBP; text on Tables 6 and 7)
APPCAFHLGELVWCT (disulfide 4-14 (inferred)) | 0.226 | 0.983 | 0.880 | 0.380 | 0.605 | 1.159 | – | – | – | – | – | – | –
APPCAWHLGELVWCT (disulfide 4-14 (inferred)) | 0.250 | 1.148 | 0.530 | 0.562 | 0.658 | 1.166 | – | – | – | – | – | – | –
APPDCAWHLGELVWCT (Synthetically generated polypeptide) | 0.205 | 0.389 | 0.670 | 0.496 | 0.509 | 1.065 | best inhibition | 0.227 | significantly inhibit | greatest inhibition | greatest inhibition | 0.500 | able to inhibit
DCAFHLGELVWCT (disulfide 2-12 (inferred)) | 0.267 | 0.859 | 0.810 | 0.510 | 0.660 | 0.962 | – | – | – | – | – | – | –
